US11713318B2, “Short conjugated oligoelectrolytes and uses thereof” (The Regents Of The University Of California, priority 2018, dated 2023)

Key:
Y. pseudotuberculosis = test: microbe, parasite or virus in culture; assay type: cell-based; conditions: Yersinia pseudotuberculosis
S. pneumoniae D39 = test: MIC panel of pathogens, Table 4; assay type: cell-based; conditions: Streptococcus pneumoniae
S. pneumoniae Daw 1 = test: MIC panel of pathogens, Table 4; assay type: cell-based; conditions: Streptococcus pneumoniae, DAW1
[1] = test system: RAW264.7 (ATCC TIB-71) cells; test: Cytotoxicity, MTT assay; assay type: cell-based, murine; conditions: Mus musculus, RAW264.7; RAW 264.7; MTT, 24 hours incubation; read-out: IC50
Method: Before removing the frozen cell stocks from liquid nitrogen, culture medium was pre-warmed to 37° C. The frozen tube was then removed from liquid nitrogen and placed into a 37° C. water bath and shaken gently to thaw the cell stock as quickly as possible. A small portion of the pre-warmed culture medium was added to the cell solution. The cell suspension was then centrifuged at 1000 r/min for 3 minutes. The supernatant was discarded and the cells were resuspended in fresh culture medium.
NIH 3T3 (ATCC CRL-1658) and Hep G2 (ATCC HB-8065) cells were cultured with DMEM+10% FBS in 100 mm dishes. Cells were lifted for subculture or testing when confluence reached ˜60% by treating with 1× trypsin (incubated for 3 min at 37° C.). J774 (ATCC TIB-67) cells were cultured with DMEM+10% FBS in 100 mm dishes. Cells were lifted for subculture or testing when confluence reached ˜80% using a cell scraper. RAW264.7 (ATCC TIB-71) cells were cultured with DMEM+10% heat-inactivated FBS+1% pen/strep in T75 flasks. Cells were lifted for subculture or testing when confluence reached ˜80% using a cell scraper.
• 1. Cells were lifted and resuspended in culture medium. The number of cells in the cell suspension was determined using an auto-cell counter: 10 μL of the cell suspension was mixed with 10 μL 1× trypan blue (filtered with 0.2 μm PES filter) and the mixture was loaded onto a cell counting slide. Based on the concentration of viable cells, the cell suspension was further diluted to achieve the desired density. • 2. […] The 96-well plates were analyzed in a plate reader using the following method: shake for 5 minutes, wait for 30 seconds, and measure absorbance at 570 nm. • 8. Data processing: The average of background Abg was calculated from the blank column. […] The average A. and standard deviation Se of each experimental group and the average Ac and standard deviation Sc for control group (with pure culture medium incubation) were then calculated. The cell viability was determined as Ae/Ac×100% and corresponding error as Se/Ae×100%. […]

[2] = Cytotoxicity tested by Eurofins Pharma Discovery Services; assay type: cell-based; conditions: Primary Human Hepatocytes, Eurofins; at the concentration given as IC50 bound; read-out: cell viability at the highest or lowest test concentration

Which MIC (Y. pseudotuberculosis) does the source give for `CCCCCC[N+](C)(C)CCCCCCOc1cc(/C=C/c2cc(OCCCCCC[N+](C)(C)CCCCCC)cc(OCCCCCC[N+](C)(C)CCCCCC)c2)cc(OCCCCCC[N+](C)(C)CCCCCC)c1` [Formula E] here?
Its MIC is 1 µg/mL.

What about the MIC (S. pneumoniae D39) of the same compound?
Its MIC is 4 µg/mL.

And the MIC (S. pneumoniae Daw 1)?
Its MIC is 8 µg/mL.

And the IC50 [1]?
The IC50 was 3.76 µg/mL.

With `C[N+](C)(C)CCCCOc1cc(/C=C/c2ccc(/C=C/c3cc(OCCCC[N+](C)(C)C)cc(OCCCC[N+](C)(C)C)c3)cc2)cc(OCCCC[N+](C)(C)C)c1.[I-].[I-].[I-].[I-]` [Formula F] as the compound, how does the viability [2] read?
Its viability is 79%.
